# Source: article PMC3230704 (Molecular pharmaceutics, 2011)
# Where no end group is shown, it is not given here.
# How the values were obtained:
# MT1-MMP = settings: cited from earlier work
# [1] = system: MDA-MB-435 tumor-bearing mice; assay: Ex vivo biodistribution imaging of excised tumors and organs; assay type: in vivo; settings: 24 hrs post-injection, without inhibitor
# MDA-MB-435 tumor = assay: In vivo NIR fluorescence imaging of MT1-MMP-positive tumor-bearing mice
# MT1-MMP (MMP-14) = MT1-MMP (MMP-14) (Homo sapiens, UniProt P50281); assay: Fluorescence activation of MT-P by activated MT1-MMP; assay type: biochemical; settings: MT1-MMP 0, 4, 20 and 40 nM, 60 min, spectrofluorimetry
activation of NIR fluorescent signals over the probe without MT1-MMP (MT1-MMP (MMP-14)),Substance,specificity constant (kcat/Km) (MT1-MMP),biodistribution of activated fluorescence [1],"onset of activation in tumor (MDA-MB-435 tumor; 5 nmol i.v., MDA-MB-435 tumor-bearing mice)",fluorescent signal in the tumor at 48 hrs post-injection (MDA-MB-435 tumor; 48 hrs post-injection)
–,RIGFLR,"777,200 M^−1s^−1",–,–,–
up to 10 fold,GRIGFLRTAKGG [MT-P],–,activated predominantly in the tumor and liver over other organs,less than 1 hr,not detectable
